The subject of series [1] is cathepsin S-dependent invariant chain processing. The series is described as follows: Cathepsin S-dependent invariant chain processing in Raji B cells. In kind it is cell-based. The settings on record: Homo sapiens, read-out: inhibition of cathepsin S-dependent invariant chain processing IC50.
Series [2] addresses T1, cathepsin S (Mus musculus, UniProt O70370). Description: Cathepsin S enzyme across species: mouse. In kind it is biochemical.
Series [3] addresses cathepsin S enzyme (Rattus norvegicus, UniProt Q02765). The series is described as follows: Cathepsin S enzyme across species: rat. Format: biochemical.
Series [4] deals with cathepsin S enzyme (Canis lupus familiaris, UniProt Q8HY81). Description: Cathepsin S enzyme across species: dog. Format: biochemical.
In a further series the test system is tumor invasion. The series is described as follows: In vitro bioassay for tumor invasiveness. Format: cell-based.
Another series concerns angiogenesis. The series is described as follows: In vitro bioassay for angiogenesis. In kind it is cell-based.
Series [5] has as its system 66.1 cancer cells in the bone. The series is described as follows: Bone cancer pain study (breast cancer cells implanted in femur). In kind it is in vivo, mice. As to the method: FIG. 3: Bone cancer and bone cancer pain study with Compound A. FIG. 3a: Protocol. Bone cancer pain study with Compound A. Dose groups: Vehicle, Zoledronate (100 μg/kg ) positive control, Compound A (100 mg/kg, daily dosing, SC, days 7-21), 10 animals per group Control animals were injected with media (and no tumor cells) in the femur. FIGS. 3b-3d. Left to right: Sham/media +Compound A, Cancer +vehicle, cancer +zoledronate, cancer +Compound A. FIG. 3b: Effects on bone destruction. […] Spontaneous Pain in the form of Flinching was attenuated by Compound Aon day 14 and day 21 with statistical significance, as compared to vehicle. […] Movement evoked pain was attenuated by Compound A on day 13 with statistical significance as compared to vehicle.
FIG. 6. Histology Analysis of Bone Samples in Bone Caner Pain Study. Representative bone sections from the study described in FIG. 3A were subjected to staining with the standard hematoxylin and eosin histological stain to visualize cellular structures in the bone. In FIG. 6, the pitting of the bone is shown and indicated from samples in the study arm with 66.1 cancer cells in the bone and dosed with vehicle control only, which is due to ostelytic activity induced by the presence of the 66.1 cancer cells in the bone.
FIG. 3a sets forth the treatment protocol for the bone cancer pain study with Compound A. Dose groups: Vehicle, Zoledronate (100 μg/kg) positive control, Compound A (100 mg/kg, daily dosing, SC, days 7-21), 10 animals per group. Mice were implanted with breast cancer cells in the femur on day 0 and treated with Compound A on days 7 through 21. On days 0, 7, 14, and 21 radiographic imaging, thermal hyperalgesia, tactile allodynia, movement-evoked and spontaneous pain measurements were taken. Pain measurements were made 6 hours after dosing. Control animals were injected with media (and no tumor cells) in the femur. […] Bone destruction was attenuated by Compound A on day 14 and day 21 as compared to vehicle. The efficacy was similar to that obtained with zoledronate (see, FIG. 3b). […] Spontaneous Pain in the form of Flinching was attenuated by Compound A on day 14 and day 21 with statistical significance, as compared to vehicle (see, FIG. 3d). […] Movement evoked pain was attenuated by Compound A on day 13 with statistical significance as compared to vehicle (see, FIG. 3e).
Compound A was dosed subcutaneously, at a 100 mg/kg dose once a day, in a nanoparticle-sized formulation suitable for subcutaneous dosing and diluted in D5W (sterile 5% dextrose in water). Dosing was initiated 7 days after the femur implantation of the 66.1 tumor cells and continued once a day.
The data in FIG. 6 is based on representative bone sections from the study described in FIG. 3A, which were subjected to staining with the standard histological stain hematoxylin and eosin, in order to visualize cellular structures in the bone. Visualized samples include bone sections from study animals with 66.1 tumor cells injected into bone and dosed with either vehicle control or compound A and also animals with media alone injected into bone and also dosed with compound A. Normal hemapoetic cells of the bone and the 66.1 cancer cells within the bone, as well as bone histomorphology, were visualized by this staining procedure. […] This is due to ostelytic activity induced by the presence of the 66.1 cancer cells in the bone.

Series [6] can be described thus: Pharmacokinetic profile in mice. Format: in vivo. The method, then: (§1) FIG. 4. Pharmacokinetics of Compound A. FIG. 4a: Compound A pharmacokinetic profile in mice and rats. FIG. 4b. Single dose pharmacokinetics in the mouse following intravenous (1 mg/kg) and oral doses (5 mg/kg). Plasma concentration values vs. time.
Series [7] can be described thus: Pharmacokinetic profile in rats. Format: in vivo. As to the method:
as §1

Series [8] has as its system multiple human cathepsin enzymes. Description: Cathepsin inhibitory profile on multiple cathepsin enzymes. In kind it is biochemical. The text has this:
FIG. 1. […] Methods are similar to those set forth in the Biological Examples.

The next series deals with cathepsin B (Homo sapiens, UniProt P07858). Description: Activity-based probe (125-I labeled DMK) assay in HUVEC, cathepsin B. In kind it is cell-based. Also on record: endogenous in cells; host or cells: HUVEC. As to the method: (§2) FIG. 2. […] An activity-based probe assaying using 125-I labeled DMK reagent to assess the ability of Compound A to inhibit cathepsin L and cathepsin B protease activity in cells. In this assay human umbilical […] endothelial cells (HUVEC) are dosed with the indicated concentrations of Compound A in vitro. They are then incubated with the 125-I labeled activity probe for a short time, a cellular lysate produced, and the proteins analyzed biochemically by SDS PAGE. The gels are then imaged by autoradiography and the inhibition of protease activity, as assessed by the inhibition of activity probe binding, can be detected. FIG. 2b: Compound A inhibition of cathepsin S activity in the spleen in vivo as a function of time after dosing and plasma levels following a 10 mg/kg dose of the agent. […] The accumulation of the lip10 biomarker was tracked in spleen tissue samples taken from the treated animal. Accordingly, FIG. 2b. is based upon an assay which detects the accumulation of a proteolytic substrate of cathepsin S, the p10 fragment of invariant chain shown here as lip10, following dosing of Compound A in mice at 10 mg/kg/3 mice per time points are dosed with Compound A for the indicated times, and the spleens harvested and frozen. The level of lip10, an indicator cathepsin S inhibition is then detected using SDS PAGE and western blotting in lysates produced from the spleens. […]

In the next series the target is cathepsin L (Homo sapiens, UniProt P07711). The series is described as follows: Activity-based probe (125-I labeled DMK) assay in HUVEC, cathepsin L. In kind it is cell-based. Further details: endogenous in cells; host or cells: HUVEC. The method, then:
as §2

Series [9] has as its target T1, cathepsin S. The series is described as follows: Accumulation of lip10 biomarker in spleen after dosing. The note with it: mice, 10 mg/kg. In kind it is in vivo. Further details: from tissue; host or cells: mouse spleen (in vivo dosing). As to the method:
as §2

The mark [10] stands for this setting: day 14 and day 21, 100 mg/kg, daily, SC, compared to vehicle.

The values below come from US8680152B2, “Cathepsin inhibitors for the treatment of bone cancer and bone cancer pain” (Virobay, Inc., priority 2011, dated 2014).

One may read the IC50 as the midpoint of a concentration-inhibition curve.

Chain of cathepsin S enzyme (Rattus norvegicus, UniProt Q02765) (Q02765 113-330): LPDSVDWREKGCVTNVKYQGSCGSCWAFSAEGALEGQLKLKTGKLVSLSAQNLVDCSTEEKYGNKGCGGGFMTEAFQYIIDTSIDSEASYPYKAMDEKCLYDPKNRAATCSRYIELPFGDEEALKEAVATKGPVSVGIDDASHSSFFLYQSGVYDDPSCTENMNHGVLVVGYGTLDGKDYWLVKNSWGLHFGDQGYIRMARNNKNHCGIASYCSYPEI
Chain of cathepsin S enzyme (Canis lupus familiaris, UniProt Q8HY81) (Q8HY81 115-331): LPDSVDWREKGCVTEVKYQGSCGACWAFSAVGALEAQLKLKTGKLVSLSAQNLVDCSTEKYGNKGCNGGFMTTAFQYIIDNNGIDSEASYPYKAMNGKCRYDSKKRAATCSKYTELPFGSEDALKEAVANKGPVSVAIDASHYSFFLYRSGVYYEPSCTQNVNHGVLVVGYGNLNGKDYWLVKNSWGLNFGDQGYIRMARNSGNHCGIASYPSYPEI
Chain of cathepsin L (P07711 114-333): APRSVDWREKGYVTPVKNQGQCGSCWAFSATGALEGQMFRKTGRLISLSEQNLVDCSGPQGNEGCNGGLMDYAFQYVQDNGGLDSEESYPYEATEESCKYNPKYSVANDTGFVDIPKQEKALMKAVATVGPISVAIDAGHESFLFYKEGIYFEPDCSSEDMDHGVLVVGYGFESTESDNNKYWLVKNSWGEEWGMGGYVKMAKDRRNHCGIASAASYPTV

As to `CC[C@H](NC(=O)[C@H](CS(=O)(=O)CC1CC1)N[C@@H](c1ccc(F)cc1)C(F)(F)F)C(=O)C(=O)NC1CC1` [Compound A, (S)—N-cyclopropyl-3-((R)-3-((cyclopropylmethyl)sulfonyl)-2-(((S)-2,2,2-trifluoro-1-(4-fluorophenyl)ethyl)amino)propanamido)-2-oxopentanamide], the IC50 in series [1] is < 10 nM; at cathepsin S [2] it was < 0.25 nM; against cathepsin S enzyme [3], 0.77 nM; at cathepsin S enzyme [4], 0.25 nM. Further, the tumor invasion entry in the series on tumor invasion is “inhibited”. Moreover, the angiogenesis entry in the series with angiogenesis was “inhibited”. Also, in series [5] (100 mg/kg SC once a day, nanoparticle-sized formulation in D5W), the “bone pitting (histology, hematoxylin and eosin)” value is reported as “reduced”. Further, the “effect after drug washout” value in series [5] (after 7 days of drug washout) is “without any significant effect”. The movement evoked pain entry in series [5] (day 13, 100 mg/kg, daily, SC, compared to vehicle) is listed as “attenuated”. In addition, in series [5] (setting [10]), the bone destruction result is reported as “attenuated”. In addition, the “spontaneous pain in the form of Flinching” value in [5] (setting [10]) was “attenuated”. Further, in series [5] (day 14 and day 21, 100 mg/kg, daily, SC, compared to vehicle or zoledronate), the “spontaneous pain in the form of Guarding” value is listed as “attenuated”. Moreover, in [5] (day 21, 100 mg/kg, daily, SC, days 7-21, compared to vehicle), the body weight result is reported as “retained weight as compared to vehicle”. Besides, the pharmacokinetics result in series [6] and in series [7] was “very favorable pharmacokinetics” throughout. For the same compound, in series [8], the “cathepsin inhibitory profile on multiple cathepsin enzymes” value is “very high potency and selectivity”. For the same compound, at cathepsin B, the “inhibition of cathepsin B activity in endothelial cells, potency” value is recorded as “single digit nanomolar potency”. Besides, on cathepsin L, the “inhibition of cathepsin L activity in endothelial cells, potency” value is reported as “single digit nanomolar potency”. Further, the “activity in vivo as judged by accumulation of a biomarker (lip10) in the spleen” value at cathepsin S [9] is reported as “active in vivo”.
